Assay results published in patent publication US20070225242A1, “Method and composition for treating and preventing tumor metastasis in vivo” (The Board of Trustees of the Leland Stanford Junior …, priority 2005, published 2007).

B1: catalase: catalase (Sigma), removes hydrogen peroxide, a by-product of LOX activity (protein, UniProt P00432 2-527, looked up)
Catalase: ADNRDPASDQMKHWKEQRAAQKPDVLTTGGGNPVGDKLNSLTVGPRGPLLVQDVVFTDEMAHFDRERIPERVVHAKGAGAFGYFEVTHDITRYSKAKVFEHIGKRTPIAVRFSTVAGESGSADTVRDPRGFAVKFYTEDGNWDLVGNNTPIFFIRDALLFPSFIHSQKRNPQTHLKDPDMVWDFWSLRPESLHQVSFLFSDRGIPDGHRHMNGYGSHTFKLVNANGEAVYCKFHYKTDQGIKNLSVEDAARLAHEDPDYGLRDLFNAIATGNYPSWTLYIQVMTFSEAEIFPFNPFDLTKVWPHGDYPLIPVGKLVLNRNPVNYFAEVEQLAFDPSNMPPGIEPSPDKMLQGRLFAYPDTHRHRLGPNYLQIPVNCPYRARVANYQRDGPMCMMDNQGGAPNYYPNSFSAPEHQPSALEHRTHFSGDVQRFNSANDDNVTQVRTFYLKVLNEEQRKRLCENIAGHLKDAQLFIQKKAVKNFSDVHPEYGSRIQALLDKYNEEKPKNAVHTYVQHGSHLSAREKANL

Experiments:
Format in all cases: cell-based
MDA231 and SiHa cells = test: In vitro invasion assay (Matrigel-coated inserts); settings: various human cancer cells; 24 hr oxygen deprived
Description: The first step of the metastatic process is cell invasion. […] The invasion of various human cancer cells in vitro was examined. […] Because LOX is a copper-dependent enzyme that can act intracellularly or extracellularly, cells were treated with bathocuprione disulphonate (BCS), a copper chelator that cannot permeate the cell membrane.
Invasive behavior was examined in vitro as previously described. Briefly, cells were serum deprived for 24 h then 2.5×10^4 cells were seeded in triplicate on both Matrigel-coated and uncoated inserts, moved to chambers containing 750 μl of FBS as a chemo-attractant and incubated at in normoxic or oxygen deprived conditions for 24 hr. Treatments with beta-aminoproprionitrile or bathocuprione disulphonate (Sigma) were performed 24 h prior to serum deprivation, and continued throughout the experiment.

human cancer cells = test: Cell viability; settings: data not shown
FAK = FAK phosphorylation (phospho-FAK immunoblot); settings: cells expressing LOX shRNA transfected with mature LOX
From the text: Acquisition of motility is required before cells can migrate and invade. Invasive cell migration is a multi-step process^17 that commences with pseudopod protrusion at the leading edge driven by actin polymerization, resulting in focal adhesion formation and the activation of integrin and focal adhesion kinase (FAK). […] LOX protein expression extended along hairlike fibers protruding from the cell surface into the collagen matrix. […] Remodeling of the actin cytoskeleton with increased formation of stress fibers and focal adhesion in MDA231 control cells particularly in hypoxia was observed, which were not seen in cells expressing LOX shRNA.
A role for fibronectin (FN) was sought, because it was strongly associated with LOX expression in the breast cancer microarray data set that was analyzed (data not shown), is reported to regulate invasion, bind to integrins and interact with LOX, and is hypoxia induced. […] FAK phosphorylation could be induced in the cells expressing LOX shRNA by transfection with mature LOX (but not catalytically dead LOX), confirming a role for LOX in FAK phosphorylation. […]
Methods were performed as previously described. […] LOX was analyzed by using a rabbit polyclonal antibody raised against a synthetic peptide of human LOX (EDTSCDYGYHRRFA (SEQ ID NO:1); Open Biosystems). […] Quantification was performed with ImageQuant software.

Molecule	increased invasion under hypoxia or anoxia (MDA231 and SiHa cells)	cell viability (human cancer cells)	FAK phosphorylation induced by transfection with mature LOX (FAK)
Cc1cc(-c2ccc(S(=O)(=O)O)cc2)c2ccc3c(-c4ccc(S(=O)(=O)O)cc4)cc(C)nc3c2n1 [BCS, bathocuprione disulphonate]	prevented the enhanced invasion of hypoxic cells	Neither treatment with BAPN nor treatment with BCS affected cell viability	
B1			could be prevented
